# Source: paper PMC6073332 (2018)
# Legend:
# [1] = system: duplex III (= I + II) (DNA, duplex) CTCTCTTGTCTTCTC/GAGAAGACAAGAGAG; assay: CD; conditions: Na+ 100 mM (NaClO4) in incubation stock, 50 mM TEAA pH 7, 310 K, 24 h, diluted to 5 μM duplex, covalent
# [2] = system: single strand II (complement of I) (DNA, single strand) GAGAAGACAAGAGAG; assay: HPLC-ESI-MS; conditions: 50 mM TEAA pH 7, 310 K, 24 h; Ru/II 1.0 or 3.0; covalent
# [3] = system: single strand I (-T7G8T9-) (DNA, single strand) CTCTCTTGTCTTCTC; assay: HPLC-UV peak areas, two-step stoichiometric fit; conditions: none listed (50 mM triethylammonium acetate buffer only); 50 mM TEAA pH 7, 310 K, 24 h; covalent; site 1 of 2 (G8)
# [4] = system: single strand V (-C7G8A9-) (DNA, single strand) CTCTCTCGACTTCTC; assay: HPLC-UV peak areas, two-step stoichiometric fit; conditions: none listed (50 mM triethylammonium acetate buffer only); 50 mM TEAA pH 7, 310 K, 24 h; covalent; site 1 of 2 (G8)
# [5] = system: single strand VII (-C7G8C9-) (DNA, single strand) CTCTCTCGCCTTCTC; assay: HPLC-UV peak areas, two-step stoichiometric fit; conditions: none listed (50 mM triethylammonium acetate buffer only); 50 mM TEAA pH 7, 310 K, 24 h; covalent; site 1 of 2 (G8)
# [6] = system: duplex III (= I + II) (DNA, duplex) CTCTCTTGTCTTCTC/GAGAAGACAAGAGAG; assay: HPLC-ESI-MS (denaturing); conditions: Na+ 100 mM (NaClO4); 50 mM TEAA pH 7, 310 K, 48 h; Ru/III 1.0 or 6.0; covalent
# [7] = system: single strand IX (-A7G8A9-) (DNA, single strand) CTCTCTAGACTTCTC; assay: HPLC-UV peak areas, two-step stoichiometric fit; conditions: none listed (50 mM triethylammonium acetate buffer only); 50 mM TEAA pH 7, 310 K, 24 h; covalent; site 1 of 2 (G8)
# [8] = system: single strand IV (-T7G8A9-) (DNA, single strand) CTCTCTTGACTTCTC; assay: HPLC-UV peak areas, two-step stoichiometric fit; conditions: none listed (50 mM triethylammonium acetate buffer only); 50 mM TEAA pH 7, 310 K, 24 h; covalent; site 1 of 2 (G8)
# [9] = system: single strand VIII (-A7G8T9-) (DNA, single strand) CTCTCTAGTCTTCTC; assay: HPLC-UV peak areas, two-step stoichiometric fit; conditions: none listed (50 mM triethylammonium acetate buffer only); 50 mM TEAA pH 7, 310 K, 24 h; covalent; site 1 of 2 (G8)
# [10] = system: single strand VI (-A7G8C9-) (DNA, single strand) CTCTCTAGCCTTCTC; assay: HPLC-UV peak areas, two-step stoichiometric fit; conditions: none listed (50 mM triethylammonium acetate buffer only); 50 mM TEAA pH 7, 310 K, 24 h; covalent; site 1 of 2 (G8)
binding [2],K1 [3],binding [6],Compound,also measured
yes,3.94 ± 0.24 × 10^4 M^−1,,Cc1ccc(C(C)C)cc1.NCCN.[Cl-].[Ru+2],binding ([1]; Ru/III up to 6.0): yes
,,,N.N.[Cl-].[Cl-].[Pt+2],binding ([1]; Pt/III 6.0): yes
yes,2.92 ± 0.46 × 10^4 M^−1,yes,NCCN.[Cl-].[Ru+2].c1ccc(-c2ccccc2)cc1,K1 [4]: 2.81 ± 0.55 × 10^4 M^−1; K1 [5]: 4.75 ± 0.53 × 10^4 M^−1; K1 [7]: 3.61 ± 0.39 × 10^4 M^−1; K1 [8]: 3.99 ± 0.31 × 10^4 M^−1; K1 [9]: 5.74 ± 0.44 × 10^4 M^−1; K1 [10]: 3.33 ± 0.37 × 10^4 M^−1
yes,0.79 ± 0.04 × 10^4 M^−1,yes,NCCN.[Cl-].[Ru+2].c1ccccc1,
yes,2.52 ± 0.13 × 10^4 M^−1,,NCCN.[Cl-].[Ru+2].c1ccc2c(c1)CCC2,
